Measured values as given in patent US20210253575A1, “PYRROLIDINE AMINE COMPOUNDS FOR THE TREATMENT OF AUTOIMMUNE DISEASE” (Hoffmann-La Roche Inc., priority 2018, published 2021).
pIC50: −log10 of the molar value.

Target: T1, human TLR9 (Homo sapiens, UniProt Q9NR96)
T1 sequence (Q9NR96 26-1032): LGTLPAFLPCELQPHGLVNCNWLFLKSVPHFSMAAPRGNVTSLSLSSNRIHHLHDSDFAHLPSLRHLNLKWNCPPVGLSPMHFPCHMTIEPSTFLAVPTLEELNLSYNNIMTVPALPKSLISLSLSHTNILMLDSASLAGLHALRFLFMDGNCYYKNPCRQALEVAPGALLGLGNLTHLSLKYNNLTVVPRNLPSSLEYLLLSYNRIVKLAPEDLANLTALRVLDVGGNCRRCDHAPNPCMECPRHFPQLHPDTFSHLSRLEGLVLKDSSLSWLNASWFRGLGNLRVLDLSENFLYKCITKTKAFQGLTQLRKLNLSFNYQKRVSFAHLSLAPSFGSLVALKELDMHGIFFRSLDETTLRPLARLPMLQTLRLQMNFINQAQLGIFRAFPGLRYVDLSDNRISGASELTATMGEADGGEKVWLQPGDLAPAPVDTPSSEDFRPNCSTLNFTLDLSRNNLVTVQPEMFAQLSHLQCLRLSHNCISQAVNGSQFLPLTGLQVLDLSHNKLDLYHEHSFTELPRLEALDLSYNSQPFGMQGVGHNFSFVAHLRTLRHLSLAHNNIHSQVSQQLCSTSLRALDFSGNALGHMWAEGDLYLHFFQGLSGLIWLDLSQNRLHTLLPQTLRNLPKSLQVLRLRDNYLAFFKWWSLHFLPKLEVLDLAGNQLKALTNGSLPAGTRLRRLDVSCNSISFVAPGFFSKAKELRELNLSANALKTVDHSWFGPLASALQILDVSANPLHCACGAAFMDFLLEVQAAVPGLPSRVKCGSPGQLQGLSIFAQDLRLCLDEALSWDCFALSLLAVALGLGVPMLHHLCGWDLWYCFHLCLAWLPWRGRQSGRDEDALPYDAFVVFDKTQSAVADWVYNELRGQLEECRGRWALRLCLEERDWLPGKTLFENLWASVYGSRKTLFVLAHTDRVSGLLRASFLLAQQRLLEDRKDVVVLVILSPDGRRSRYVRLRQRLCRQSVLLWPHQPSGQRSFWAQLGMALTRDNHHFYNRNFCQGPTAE
Experiment: HEK293-Blue-hTLR-9 cells assay (SEAP reporter, ODN2006 stimulation)
Type: cell-based
Conditions: HEK293-Blue-hTLR9 cells, ODN2006 ligand, 20 hrs incubation
In short: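 HEK293-Blue-hTLR9 cells with NF-κB/AP-1-driven SEAP reporter, stimulated with ODN2006 in presence of serially diluted compounds (1% DMSO) for 20 h at 37 °C. Supernatant SEAP measured with QUANTI-Blue after 2 h at 37 °C, absorbance 620–655 nm.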

Structure (SMILES)	pIC50
CC1(N)CCN(CC2CN(c3ccc(C#N)c4nccnc34)CC23CC3)CC1 (stereo not drawn) [Example 7, 8-[7-[(4-Amino-4-methyl-1-piperidyl)methyl]-5-azaspiro[2.4]heptan-5-yl]quinoxaline-5-carbonitrile]	7.11
N#Cc1ccc(N2C[C@H](CN3CCC4(CCNCC4)C3)[C@@H](C(F)(F)F)C2)c2cccnc12 [Example 56, 5-[(3S,4R)-3-(2,8-Diazaspiro[4.5]decan-2-ylmethyl)-4-(trifluoromethyl)pyrrolidin-1-yl]quinoline-8-carbonitrile]	6.80
N#Cc1ccc(N2CC(CNC3CCCNCC3)C3(CC3)C2)c2nccnc12 (stereo not drawn) [Example 39, 8-[7-[(Azepan-4-ylamino)methyl]-5-azaspiro[2.4]heptan-5-yl]quinoxaline-5-carbonitrile]	7.01
N#Cc1ccc(N2CC(CN3CCC4(CCCNC4)CC3)C3(CC3)C2)c2nccnc12 (stereo not drawn) [Example 13, 8-[7-(2,9-Diazaspiro[5.5]undecan-9-ylmethyl)-5-azaspiro[2.4]heptan-5-yl]quinoxaline-5-carbonitrile]	7.22
N#Cc1ccc(N2C[C@H](CN3CCCC(C(N)=O)C3)[C@@H](C(F)(F)F)C2)c2nccnc12 (stereo partly drawn) [Example 69, 1-[[(3S,4R)-1-(S-cyanoquinoxalin-5-yl)-4-(trifluoromethyl)pyrrolidin-3-yl]methyl]piperidine-3-carboxamide]	4.80
N#Cc1ccc(N2C[C@H](CN3CCC4(CCNCC4)C3)[C@@H](C(F)(F)F)C2)c2nccnc12 [Example 46, 8-[(3S,4R)-3-(2,8-diazaspiro[4.5]decan-2-ylmethyl)-4-(trifluoromethyl)pyrrolidin-1-yl]quinoxaline-5-carbonitrile]	6.56
N#Cc1ccc(N2C[C@H](CN3CCC(CCN)CC3)[C@@H](C(F)(F)F)C2)c2nccnc12 [Example 79, 8-[(3S,4R)-3-[[4-(2-aminoethyl)-1-piperidyl]methyl]-4-(trifluoromethyl)pyrrolidin-1-yl]quinoxaline-5-carbonitrile]	6.61
N#Cc1ccc(N2C[C@H](CN3CCC4(CCNC4)CC3)[C@@H](C(F)(F)F)C2)c2nccnc12 [Example 14, 8-[(3S,4R)-3-(2,8-Diazaspiro[4.5]decan-8-ylmethyl)-4-(trifluoromethyl)pyrrolidin-1-yl]quinoxaline-5-carbonitrile]	6.82
N#Cc1ccc(N2C[C@H](CN3CCCC4(CCNCC4)C3)[C@@H](C(F)(F)F)C2)c2cccnc12 [Example 57, 5-[(3S,4R)-3-(2,9-Diazaspiro[5.5]undecan-2-ylmethyl)-4-(trifluoromethyl)pyrrolidin-1-yl]quinoline-8-carbonitrile]	6.48
